How the values were obtained:
K. pneumoniae 700623 = assay: Synergistic bacteriostatic test (checkerboard test); type: cell-based, Klebsiella pneumoniae
Method: (§1) The synergistic bacteriostatic test is carried out by using the silver-containing antibacterial colloid (green mediated AgNP inhibitor) manufactured in the present embodiment and a bioactivator (using Gentamicin as an example). The fractional inhibitory concentration (FIC) index is used as a reference index for synergy. Synergy is the phenomenon in which two or more substances are mixed with each other, and the overall effect is greater than the advantage of each substance alone or less than the disadvantage of each substance alone. […] In the two-fold serial dilutions, the concentration of Gentamicin used for K. pneumoniae 700623 ranging from 1.25 μg·mL^−1 to 40 μg·mL^−1, and the concentration of Gentamicin used for K. pneumoniae BAA-1705 ranged from 5 μg·mL^−1 to 160 μg·mL^−1 The green mediated AgNP inhibitor extract extracted with TSB medium is used, and the above procedure is repeated to dilute the concentration of the green mediated AgNP inhibitor extract to 10 mg·mL^−1 50 μL of green mediated AgNP inhibitor is added longitudinally to the 96-well microplate in a two-fold serial dilution using MHB, followed by two-fold serial dilutions of six times at concentrations ranging from 0.31 mg·mL^−1 to 10 mg·mL^−1 Using 0.5 Mcfarland turbidity as the quantitative standard for bacterial solution (0.5 Mcfarland=10^8 CFU/mL). […]

K. pneumoniae BAA-1705 = assay: as above; type: cell-based, Klebsiella pneumoniae
Method: as §1

[1] = in combination with green mediated AgNP inhibitor

Substance: Gentamicin
- concentration of Gentamicin when used in combination (G-MIC-com) (K. pneumoniae 700623; [1]): 5 µg/mL
- MIC of Gentamicin when used alone (MICG) (K. pneumoniae 700623; used alone): 40 µg/mL
- concentration of Gentamicin when used in combination (G-MIC-com) (K. pneumoniae BAA-1705; [1]): 10 µg/mL
- MIC of Gentamicin when used alone (MICG) (K. pneumoniae BAA-1705; used alone): 40 µg/mL
